# Assay results reported in ChEMBL document CHEMBL3351610, “Synthesis and biological evaluation of substituted 4-(thiophen-2-ylmethyl)-2H-phthalazin-1-ones as potent PARP-1 inhibitors” (Bioorg Med Chem Lett, 2014).
# Target: Poly [ADP-ribose] polymerase 1 (Homo sapiens, UniProt P09874)
# Assay: Inhibition of human PARP1
# Poly [ADP-ribose] polymerase 1, sequence (P09874 whole entry): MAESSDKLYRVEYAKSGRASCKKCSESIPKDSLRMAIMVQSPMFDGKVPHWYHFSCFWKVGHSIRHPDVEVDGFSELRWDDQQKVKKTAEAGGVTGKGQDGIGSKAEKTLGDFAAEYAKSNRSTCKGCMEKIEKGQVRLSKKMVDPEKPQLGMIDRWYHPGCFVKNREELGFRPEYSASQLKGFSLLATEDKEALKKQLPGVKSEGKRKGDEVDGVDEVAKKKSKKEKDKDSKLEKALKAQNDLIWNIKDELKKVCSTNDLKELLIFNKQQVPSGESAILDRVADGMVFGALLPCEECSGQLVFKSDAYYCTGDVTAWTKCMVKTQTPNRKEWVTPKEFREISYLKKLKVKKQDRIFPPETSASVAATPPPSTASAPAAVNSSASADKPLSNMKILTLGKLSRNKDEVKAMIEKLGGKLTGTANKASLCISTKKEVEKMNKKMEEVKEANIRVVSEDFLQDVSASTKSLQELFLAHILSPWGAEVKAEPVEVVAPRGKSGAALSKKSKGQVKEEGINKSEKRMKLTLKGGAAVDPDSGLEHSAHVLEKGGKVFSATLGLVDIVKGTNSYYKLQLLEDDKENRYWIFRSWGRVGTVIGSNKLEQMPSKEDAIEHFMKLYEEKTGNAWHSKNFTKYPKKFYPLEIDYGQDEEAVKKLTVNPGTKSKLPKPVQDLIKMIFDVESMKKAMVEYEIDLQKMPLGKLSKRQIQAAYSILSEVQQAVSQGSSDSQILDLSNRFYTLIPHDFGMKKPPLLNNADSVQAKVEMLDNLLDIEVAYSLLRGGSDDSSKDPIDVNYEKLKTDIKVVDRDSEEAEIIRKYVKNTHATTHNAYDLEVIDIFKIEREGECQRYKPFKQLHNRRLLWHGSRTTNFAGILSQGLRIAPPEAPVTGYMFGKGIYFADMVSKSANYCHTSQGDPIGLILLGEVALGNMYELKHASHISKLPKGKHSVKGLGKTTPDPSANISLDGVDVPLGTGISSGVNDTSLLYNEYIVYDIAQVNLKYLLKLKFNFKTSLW
row,Structure (SMILES),IC50 [nM]
1,O=C(c1csc(Cc2n[nH]c(=O)c3ccccc23)c1)N1CCN(C(=O)c2ccc3c(c2)OCO3)CC1,39.6
2,O=C(c1csc(Cc2n[nH]c(=O)c3ccccc23)c1)N1CCN(C(=O)C2CC2)CC1,105
3,CCC(=O)N1CCN(C(=O)c2csc(Cc3n[nH]c(=O)c4ccccc34)c2)CC1,78.6
4,O=C(c1csc(Cc2n[nH]c(=O)c3ccccc23)c1)N1CCN(C(=O)c2ccccn2)CC1,46.1
5,O=C(c1csc(Cc2n[nH]c(=O)c3ccccc23)c1)N1CCN(C(=O)c2cccs2)CC1,10.8
6,N#Cc1ccc(C(=O)N2CCN(C(=O)c3csc(Cc4n[nH]c(=O)c5ccccc45)c3)CC2)cc1,85.5
7,CC(=O)N1CCN(C(=O)c2csc(Cc3n[nH]c(=O)c4ccccc34)c2)CC1,124
8,O=C(c1ccncc1)N1CCN(C(=O)c2csc(Cc3n[nH]c(=O)c4ccccc34)c2)CC1,108
9,O=C(c1ccc(Br)cc1)N1CCN(C(=O)c2csc(Cc3n[nH]c(=O)c4ccccc34)c2)CC1,72.3
10,COc1ccc(CC(=O)N2CCN(C(=O)c3csc(Cc4n[nH]c(=O)c5ccccc45)c3)CC2)cc1,94.9
